Results published in patent US9113629B2, “4-amino-6-(4-substituted-phenyl)-picolinates and 6-amino-2-(4-substituted-phenyl)-pyrimidine-4-carboxylates and their use as herbicides” (DOW AGROSCIENCES LLC, priority 2013, dated 2015).
Like-named read-outs stand apart in the source and are kept apart here.

Legend:
[1] = test system: Key Grass and Sedge Weeds as well as Grass Crops; test: Post-emergent Test II herbicidal activity (Table 6); assay type: in vivo; details: post-emergence, 336 h; for pest or weed control at 70 g/ha: application rate 70 g ai/ha; for pest or weed control at 140 g/ha: application rate 140 g ai/ha
In short: (§1)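 Greenhouse-grown plants at first or second true leaf stage were sprayed post-emergence with compound in acetone/DMSO-based aqueous spray containing crop oil concentrate and surfactant, at 187 L/ha, highest rate plus ½× to 1/16× dilutions. After 14 d, injury was scored visually versus untreated plants, 0 (none) to 100% (complete kill).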

[2] = test system: Key Broadleaf Weed and Crop Species; test: Post-emergent Test II herbicidal activity (Table 5); assay type: in vivo; details: post-emergence, 336 h, post-emergent, 14 days after application; for pest or weed control at 70 g/ha: 70 g ai/ha; for pest or weed control at 140 g/ha: 140 g ai/ha
In short: as §1

[3] = CYPES: yellow nutsedge (Cyperus esculentus), read-out: Visual Growth Reduction (%) 14 Days After Application, CYPES
[4] = DIGSA: crabgrass (Digitaria sanguinalis), read-out: Visual Growth Reduction (%) 14 Days After Application, DIGSA
[5] = ECHCG: barnyardgrass (Echinochloa crus-galli), read-out: Visual Growth Reduction (%) 14 Days After Application, ECHCG
[6] = ORYSA: rice (Oryza sativa), read-out: Visual Growth Reduction (%) 14 Days After Application, ORYSA
[7] = SETFA: giant foxtail (Setaria faberi), read-out: Visual Growth Reduction (%) 14 Days After Application, SETFA
[8] = SORVU: grain sorghum (Sorghum vulgare), read-out: Visual Growth Reduction (%) 14 Days After Application, SORVU
[9] = TRZSS (wheat, Triticum aestivum), read-out: Visual Growth Reduction (%) 14 Days After Application, TRZSS
[10] = ZEAMX: maize, corn (Zea mays), read-out: Visual Growth Reduction (%) 14 Days After Application, ZEAMX
[11] = ABUTH: velvetleaf (Abutilon theophrasti), read-out: Visual Growth Reduction (%) 14 Days After Application ABUTH
[12] = AMARE: redroot pigweed (Amaranthus retroflexus), read-out: Visual Growth Reduction (%) 14 Days After Application AMARE
[13] = BRSNN: oilseed-rape, canola (Brassica napus), read-out: Visual Growth Reduction (%) 14 Days After Application BRSNN
[14] = CHEAL: lambsquarters (Chenopodium album), read-out: Visual Growth Reduction (%) 14 Days After Application CHEAL
[15] = EPHHL: wild poinsettia (Euphorbia heterophylla), read-out: Visual Growth Reduction (%) 14 Days After Application EPHHL
[16] = HELAN: sunflower (Helianthus annuus), read-out: Visual Growth Reduction (%) 14 Days After Application HELAN
[17] = VIOTR: wild pansy (Viola tricolor), read-out: Visual Growth Reduction (%) 14 Days After Application VIOTR

Molecule `N#Cc1ccc(-c2nc(C(=O)O)c(Cl)c(N)c2F)c(F)c1` [Compound 65, 4-amino-3-chloro-6-(4-cyano-2-fluorophenyl)-5-fluoropicolinic acid] has a pest or weed control at 70 g/ha [1, 3] of 0 to 29%, a pest or weed control at 140 g/ha [1, 3] of 0 to 29% and a pest or weed control at 70 g/ha [1, 4] of 0 to 29%. The pest or weed control at 140 g/ha [1, 4] was 0 to 29%, the pest or weed control at 70 g/ha [1, 5] was 0 to 29% and the pest or weed control at 140 g/ha [1, 5] was 0 to 29%. It also gave a pest or weed control at 70 g/ha [1, 6] of 0 to 29%, a pest or weed control at 140 g/ha [1, 6] of 0 to 29% and a pest or weed control at 70 g/ha [1, 7] of 0 to 29%. The pest or weed control at 140 g/ha [1, 7] was 0 to 29%, the pest or weed control at 70 g/ha [1, 8] was 0 to 29% and the pest or weed control at 140 g/ha [1, 8] was 0 to 29%. It also gave a pest or weed control at 70 g/ha [1, 9] of 0 to 29%, a pest or weed control at 140 g/ha [1, 9] of 0 to 29% and a pest or weed control at 70 g/ha [1, 10] of 0 to 29%. For the same molecule, the pest or weed control at 140 g/ha [1, 10] was 0 to 29%, the pest or weed control at 70 g/ha [2, 11] was 0 to 29% and the pest or weed control at 140 g/ha [2, 11] was 0 to 29%. The pest or weed control at 70 g/ha [2, 12] was 95 to 100%, the pest or weed control at 140 g/ha [2, 12] was 95 to 100% and the pest or weed control at 70 g/ha [2, 13] was 0 to 29%. For the same molecule, the pest or weed control at 140 g/ha [2, 13] was 30 to 44%, the pest or weed control at 70 g/ha [2, 14] was 60 to 74% and the pest or weed control at 140 g/ha [2, 14] was 75 to 84%. For the same molecule, the pest or weed control at 70 g/ha [2, 15] was 95 to 100%, the pest or weed control at 140 g/ha [2, 15] was 95 to 100% and the pest or weed control at 70 g/ha [2, 16] was 85 to 94%. It also gave a pest or weed control at 140 g/ha [2, 16] of 95 to 100%, a pest or weed control at 70 g/ha [2, 17] of 0 to 29% and a pest or weed control at 140 g/ha [2, 17] of 30 to 44%.
